From US5362629A, “Detection of immunosuppressants” (President and Fellows of Harvard College, priority 1991, dated 1994)
“Also recorded” adds a separate entry of the source.

Columns and labels:
[1] = system: proteins of Mr 61,000, 57,000, 17,000, and 15,000 from calf thymus (calcineurin A, calcineurin B, calmodulin); experiment: Glutathione Sepharose adsorption of target proteins from tissue extracts by immunophilin-drug affinity matrices; format: binding, bovine; conditions: calf thymus extract; Ca2+ and Mg2+ in incubation buffer
Description: Several factors were taken into account in the design of the first glutathione-Sepharose adsorption experiment. […] In addition, in some experiments, a homobifunctional cross-linking reagent, dimethyl 3,3'-dithiobispropionimidate (DTBP) (Wang et al. 1974, J. Biol. Chem. 249:8005) was added to the incubation mixture to retain target proteins whose affinity for immunophilin or immunophilin-drug complex was not sufficient to withstand the washes following adsorption of the complex to the solid phase.
Adsorption of calcineurin-calmodulin with GFK-FK506 using glutathione Sepharose was performed as follows. Crude tissue extracts, fresh bovine calf brain, thymus, or spleen (Research 87, Revere, MA), were homogenized (1:3 W/V) in 20 mM Tris HCl (pH 6.8), 0.25 mM NaCl, 2 mM β-mercaptoethanal, 0.02% NaN3, 1 mM PMSF, and 5% glycerol. The homogenate was centrifuged at 8,000×g for 4 h. The supernatant was separated and the pellet was resuspended in an equal volume of the same buffer. Centrifugation at 8,000 ×g for 4 h gave a second supernatant. The two supernatants were mixed (1:1 v/v) and centrifuged at 30,000×g for 45 min. The supernatant was then filtered through a 0.45 μm filter and kept at 4° C. before use.
The crude tissue extracts were pre-incubated with glutathione Sepharose (about 1:100 to 1:200 dilution of the sepharose) at 4° C. for 1-3 h to remove the endogenous glutathione binding proteins, including glutathione S-transferases. […] After incubation at 4° C. on a nutator for 1.5 h, 25 μL of 50% (V/V) glutathione Sepharose in buffer A was added and incubation was continued for an additional 0.5 to 2 h. The Sepharose beads were precipitated by centrifugation on a microcentrifuge at 5,000×g for 2 min. The glutathione Sepharose beads were washed three times with 0.5 mL buffer A containing 0.2% Triton X-100. The washed glutathione Sepharose was then resuspended in 25 μL of 2× SDS sample buffer, heated in boiling water for 3 min, and centrifuged for 2 min. The supernatant was subjected to SDS-PAGE followed by silver staining. […]

calcineurin = target: T1, calcineurin (Bos taurus, UniProt P48452+P63099); experiment: Calcineurin phosphatase assay with 32P-phosphopeptide (RII subunit) substrate; format: biochemical, bovine; conditions: in the presence or absence of calmodulin; Ca2+
T1 construct: Bovine brain calcineurin and calmodulin were purchased from Sigma Chemical; purchased Sigma Chemical (St. Louis, Mo.); also a gift from Dr. Claude B. Klee; host or cells: bovine brain
Description: Calcineurin is known to be a Ca^2+, calmodulin-dependent protein phosphatase (Stewart et al., 1982, FEBS. Lett. 137:80). Using a phosphorylated peptide fragment from the regulatory subunit of cAMP-dependent kinase as a substrate, the phosphatase activity of the calcineurin was assayed in the presence of the immunophilins, the individual drugs, and their respective complexes with or without calmodulin.
Calcineurin phosphatase assays were carried out essentially as described previously (Manalan et al. 1983, Proc. Natl. Acad. Sci. USA 80:4291) with minor modifications. The substrate used was a synthetic peptide corresponding to the phosphorylation site of the RII subunit of cyclic AMP-dependent protein kinase […] (Sequence I.D. No. 1), which was phosphorylated with ^32 p-labeled ATP at the serine residue. The assay buffer consists of 40 mM TrisHCl (pH 7.5), 0.1 M NaCl, 6 mM MgCl2, 0.1 mM CaCl2, 0.1 mg/mL bovine serum albumin, and 0.5 mM dithiothreitol. The assay mixture (60 μl) contained 40 nM calcineurin, and 80 nM calmodulin (when present), and 2 μM phosphopeptide in addition to the assay buffer. […] Therefore, the drug solutions were prepared in DMSO as follows. DMSO stock solutions of the drugs were prepared (3000×final concentration) and then diluted 100×with the assay buffer. 2 μL was added to the incubation mixture giving a final concentration of DMSO of less than 0.04% in the final assay mixture. The incubations were carried out at 30° C. for 10 min before the reaction was stopped by addition of the stop solution (5% trichloroacetic acid, 0.1 M potassium phosphate) and loaded onto 0.5 ml Dowex AG 50W-X8 (200-800 mesh, Bio-Rad) columns. After the [^32 P]-inorganic phosphate was eluted from the column, it was mixed with 12 ml of ScintiVerse II (Fisher Scientific) and counted on a Beckman LS1801 Liquid Scintillation Systems. Bovine brain calcineurin and calmodulin were purchased from Sigma Chemical (St. Louis, Mo.). ^32 P-labeled phosphorylated peptide substrate, bovine brain calcineurin, and rabbit anti-calcineurin IgG were generous gifts from Dr. Claude B. Klee (National Cancer Institute, Department of Biochemistry). Goat-anti-rabbit IgG conjugated with alkaline phosphatase and the alkaline phosphatase substrates (BCIP and NBT) were obtained from Pierce (Rockford, ILL.). Glutathione Sepharose 4B was from Pharmacia LKB (Uppsala, Sweden). 506BD was prepared by Thomas J. Wandless and Patricia K. Somers in the Harvard laboratory.

[2] = target: T2, calcineurin-Ca2+/calmodulin (Bos taurus, UniProt P48452+P63099); experiment: Calcineurin phosphatase assay with para-nitrophenyl phosphate; format: biochemical, bovine; conditions: Ca2+ and calmodulin present
T2 construct: Bovine brain calcineurin and calmodulin were purchased from Sigma Chemical; purchased Sigma Chemical (St. Louis, Mo.); also a gift from Dr. Claude B. Klee; host or cells: bovine brain
Description: The small para-nitrophenyl phosphate reagent presumably interacts with calcineurin nearly exclusively via active site residues, whereas the phosphopeptide, which is comprised of a sequence derived from the phosphorylation site on the RII subunit of cyclic AMP-dependent protein kinase (a calcineurin substrate) (Blumenthal et al., 1986, J. Biol. Chem 261:8140), is presumed to make extensive contact with the enzyme.

[3] = system: T-cell receptor-mediated signaling pathway; conditions: cited from earlier work
[4] = system: set of four target proteins (calcineurin-calmodulin) adsorbed on GFK-FK506; experiment: Competitive binding / elution of target proteins from glutathione-Sepharose-immobilized GFK-FK506; set-up: species or system bovine
Description: A competitive binding experiment was carried out with recombinant FKBP12 and cyclophilin A (Standaert et al., 1990, supra, Lui et al., 1990, Proc. Natl. Acad. Sci. 87:2304) and their respective drug complexes. After the set of four target proteins were adsorbed onto the glutathione Sepharose affinity matrix, elution was attempted with immunophilins, the drugs, or the immunophilin-drug complexes. The set of four proteins were eluted from glutathione-sepharoseimmobilized GFK-FK506 with both recombinant complexes. In contrast, these proteins were not eluted by free immunophilins or unbound drugs.
To further test the importance of divalent metal ions for interaction between immunophilin-drug complexes and target proteins, the adsorption experiment was performed in the presence of the Ca^2+ chelator EGTA.

T1 sequence (P63099 2-170 limits assumed, other chains not shown): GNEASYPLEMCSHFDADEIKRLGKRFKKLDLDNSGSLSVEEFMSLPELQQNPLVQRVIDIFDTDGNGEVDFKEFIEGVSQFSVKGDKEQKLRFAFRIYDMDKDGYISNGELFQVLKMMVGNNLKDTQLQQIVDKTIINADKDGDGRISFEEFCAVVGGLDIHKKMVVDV

Molecule	retention/adsorption of the Mr 61,000, 57,000, 17,000 and 15,000 proteins by the affinity matrix [1]	effect on phosphatase activity of calcineurin towards the phosphopeptide substrate (calcineurin)	effect on phosphatase activity of calcineurin towards para-nitrophenyl phosphate [2]	concentration needed to interfere with T-cell receptor-mediated signaling, relative to CsA ([3]; lower concentrations than CsA) [fold]	elution of the four target proteins from the immobilized immunophilin-drug matrix [4]	inhibition of TCR-mediated signaling ([3]; previous observations)
FKBP12: recombinant human immunophilin binding FK506 and rapamycin	do not retain	no effect	no effect	–	–	–
C=CC[C@@H]1/C=C(\C)C[C@H](C)C[C@H](OC)[C@H]2O[C@@](O)(C(=O)C(=O)N3CCCC[C@H]3C(=O)O[C@H](/C(C)=C/[C@@H]3CC[C@@H](O)[C@H](OC)C3)[C@H](C)[C@@H](O)CC1=O)[C@H](C)C[C@@H]2OC [FK506]	do not retain	no effect	no effect	100	–	–
cyclophilin A: recombinant human immunophilin which complexes with cyclosporine A	–	no effect	no effect	–	–	–
O=C(O)CN(CCOCCOCCN(CC(=O)O)CC(=O)O)CC(=O)O [EGTA]	–	–	–	–	able to effectively elute; also recorded: capable of eluting	–
CO[C@H]1C[C@@H]2CC[C@@H](C)[C@@](O)(O2)C(=O)C(=O)N2CCCC[C@H]2C(=O)O[C@H]([C@H](C)C[C@@H]2CC[C@@H](O)[C@H](OC)C2)CC(=O)[C@H](C)/C=C(\C)[C@@H](O)[C@@H](OC)C(=O)[C@H](C)C[C@H](C)/C=C/C=C/C=C/1C [rapamycin]	do not retain	no effect	no effect	–	–	inhibits different, calcium-independent signaling pathways
